The target in this experiment is T1, PI3Kδ (Homo sapiens, UniProt O00329).
T1 construct: Full length p110 subunits of PI3k α, β and δ, N-terminally labeled with polyHis tag; polyHis (N); made in house; host or cells: Sf9 insect cells (baculovirus)
T1 sequence (O00329 whole entry): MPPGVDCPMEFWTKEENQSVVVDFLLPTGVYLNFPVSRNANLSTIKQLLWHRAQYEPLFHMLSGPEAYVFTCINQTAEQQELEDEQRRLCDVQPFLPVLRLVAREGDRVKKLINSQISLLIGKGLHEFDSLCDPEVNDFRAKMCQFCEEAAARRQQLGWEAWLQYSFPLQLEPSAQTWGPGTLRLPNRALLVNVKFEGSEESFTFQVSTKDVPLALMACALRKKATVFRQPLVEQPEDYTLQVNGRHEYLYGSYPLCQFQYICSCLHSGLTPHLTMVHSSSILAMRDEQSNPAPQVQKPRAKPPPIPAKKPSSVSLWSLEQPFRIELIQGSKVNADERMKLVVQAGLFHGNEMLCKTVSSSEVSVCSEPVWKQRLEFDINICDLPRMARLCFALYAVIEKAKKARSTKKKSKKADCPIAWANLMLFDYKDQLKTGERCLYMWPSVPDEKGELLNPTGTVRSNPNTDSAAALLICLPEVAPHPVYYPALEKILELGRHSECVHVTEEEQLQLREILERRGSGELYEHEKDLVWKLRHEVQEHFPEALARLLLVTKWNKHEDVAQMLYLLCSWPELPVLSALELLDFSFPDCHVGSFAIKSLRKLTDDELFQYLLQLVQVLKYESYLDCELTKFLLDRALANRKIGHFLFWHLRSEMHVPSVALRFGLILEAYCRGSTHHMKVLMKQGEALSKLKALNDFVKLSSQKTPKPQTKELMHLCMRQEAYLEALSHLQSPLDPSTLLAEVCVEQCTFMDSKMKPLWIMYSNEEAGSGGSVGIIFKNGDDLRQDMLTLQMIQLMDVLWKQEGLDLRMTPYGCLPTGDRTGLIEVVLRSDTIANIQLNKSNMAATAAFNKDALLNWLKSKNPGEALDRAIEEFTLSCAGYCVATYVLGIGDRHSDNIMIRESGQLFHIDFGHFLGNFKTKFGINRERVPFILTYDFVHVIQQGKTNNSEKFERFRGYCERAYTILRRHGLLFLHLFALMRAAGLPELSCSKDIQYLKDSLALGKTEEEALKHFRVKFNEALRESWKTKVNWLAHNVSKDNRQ
T1 sequence (P27986 whole entry partner): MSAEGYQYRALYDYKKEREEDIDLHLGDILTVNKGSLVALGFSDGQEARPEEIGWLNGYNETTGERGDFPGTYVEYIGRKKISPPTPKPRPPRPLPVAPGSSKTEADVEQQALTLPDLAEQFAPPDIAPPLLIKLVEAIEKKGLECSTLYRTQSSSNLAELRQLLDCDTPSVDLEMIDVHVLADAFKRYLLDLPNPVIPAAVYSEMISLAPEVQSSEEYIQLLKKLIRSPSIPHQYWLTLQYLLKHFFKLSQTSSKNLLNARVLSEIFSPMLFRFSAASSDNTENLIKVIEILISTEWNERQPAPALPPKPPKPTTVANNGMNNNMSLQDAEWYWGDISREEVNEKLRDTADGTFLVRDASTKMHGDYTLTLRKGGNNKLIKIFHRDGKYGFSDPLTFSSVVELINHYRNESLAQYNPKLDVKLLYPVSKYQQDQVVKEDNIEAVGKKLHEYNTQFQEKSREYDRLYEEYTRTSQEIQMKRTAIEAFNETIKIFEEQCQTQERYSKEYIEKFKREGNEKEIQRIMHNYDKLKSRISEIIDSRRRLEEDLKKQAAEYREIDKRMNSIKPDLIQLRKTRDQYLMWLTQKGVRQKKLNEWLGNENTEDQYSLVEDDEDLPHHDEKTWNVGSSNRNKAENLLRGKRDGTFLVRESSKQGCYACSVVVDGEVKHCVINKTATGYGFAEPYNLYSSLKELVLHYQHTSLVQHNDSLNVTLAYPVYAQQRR
Put plainly: PI3Kδ Alphascreen assay. The experiment is classed as biochemical.
In turn, `CC(=O)c1ccc(S(C)(=O)=O)c(-c2nc3cc(F)cc(F)c3c(Nc3cncc(N4CCOCC4)c3)c2C)c1` [1-(3-(5,7-difluoro-3-methyl-4-((5-(4-morpholinyl)-3-pyridinyl)-amino)-2-quinolinyl)-4-(methylsulfonyl)phenyl)ethanone] displayed a Ki of 2.18 nM. This counts as single-digit nanomolar. Next, `Cc1c(N2CCC2=O)nc2cc(F)cc(F)c2c1Nc1cncc(N2CCOCC2)c1` [1-(5,7-difluoro-3-methyl-4-((5-(4-morpholinyl)-3-pyridinyl)-amino)-2-quinolinyl)-2-azetidinone]: 27.2 nM. In the case of `Cc1c(N2CCCCC2=O)nc2cc(F)cc(F)c2c1Nc1cncc(N2CCOCC2)c1` [1-(5,7-difluoro-3-methyl-4-((5-(4-morpholinyl)-3-pyridinyl)-amino)-2-quinolinyl)-2-piperidinone], the Ki came out at 203 nM. Next, `Cc1c(N2CC(C)(C)CC2=O)nc2cc(F)cc(F)c2c1Nc1cncc(N2CCOCC2)c1` [1-(5,7-difluoro-3-methyl-4-((5-(4-morpholinyl)-3-pyridinyl)-amino)-2-quinolinyl)-4,4-dimethyl-2-pyrrolidinone]: 21.4 nM; `Cc1c(N2CC(C)(C)CCC2=O)nc2cc(F)cc(F)c2c1Nc1cncc(N2CCOCC2)c1` [1-(5,7-difluoro-3-methyl-4-((5-(4-morpholinyl)-3-pyridinyl)-amino)-2-quinolinyl)-5,5-dimethyl-2-piperidinone]: 38.6 nM. Next, `Cc1c(N2CCC[C@@H]2C(=O)O)nc2cc(F)cc(F)c2c1Nc1cncc(N2CCOCC2)c1` [1-(5,7-difluoro-3-methyl-4-((5-(4-morpholinyl)-3-pyridinyl)-amino)-2-quinolinyl)-D-proline]: 59.9 nM; `Cc1c(N2CCC[C@H]2C(=O)O)nc2cc(F)cc(F)c2c1Nc1cncc(N2CCOCC2)c1` [1-(5,7-difluoro-3-methyl-4-((5-(4-morpholinyl)-3-pyridinyl)-amino)-2-quinolinyl)-L-proline]: 9.37 nM; `Cc1c(N2CCC[C@@H]2C(=O)N(C)C)nc2cc(F)cc(F)c2c1Nc1cncc(N2CCOCC2)c1` [1-(5,7-difluoro-3-methyl-4-((5-(4-morpholinyl)-3-pyridinyl)-amino)-2-quinolinyl)-N,N-dimethyl-D-prolinamide]: 10.3 nM. The value for `CNC(=O)[C@H]1CCCN1c1nc2cc(F)cc(F)c2c(Nc2cncc(N3CCOCC3)c2)c1C` [1-(5,7-difluoro-3-methyl-4-((5-(4-morpholinyl)-3-pyridinyl)-amino)-2-quinolinyl)-N-methyl-D-prolinamide] was 10.4 nM. `Cc1c(-c2ccc(N3CCC(O)C3)nc2)nc2cc(F)cc(F)c2c1Nc1cc(N2CCOCC2)cnc1N1CCOCC1` (stereo not shown) [1-(5-(4-((2,5-di-4-morpholinyl-3-pyridinyl)amino)-5,7-difluoro-3-methyl-2-quinolinyl)-2-pyridinyl)-3-pyrrolidinol] showed an inhibition constant (Ki) of 36.3 nM. The value for `Cc1c(N2CCN(C(=O)OC(C)C)CC2)nc2cc(F)cc(F)c2c1Nc1cncc(N2CCOCC2)c1` [1-methylethyl 4-(5,7-difluoro-3-methyl-4-((5-(4-morpholinyl)-3-pyridinyl)amino)-2-quinolinyl)-1-piperazinecarboxylate] was 38.8 nM; that for `Cc1c(N2CCN(C(=O)OCC(C)(C)C)CC2)nc2cc(F)cc(F)c2c1Nc1cncc(N2CCOCC2)c1` [2,2-dimethylpropyl 4-(5,7-difluoro-3-methyl-4-((5-(4-morpholinyl)-3-pyridinyl)amino)-2-quinolinyl)-1-piperazinecarboxylate] was 99 nM; that for `Cc1cccc(-c2nc3cc(F)cc(F)c3c(Nc3cc(N4CCOCC4)cnc3N3CCOCC3)c2C)c1C` [2-(2,3-dimethylphenyl)-N-(2,5-di-4-morpholinyl-3-pyridinyl)-5,7-difluoro-3-methyl-4-quinolinamine] was 12.9 nM. The compound `Cc1c(-c2ccc(C(F)(F)F)cc2C(F)(F)F)nc2cc(F)cc(F)c2c1Nc1cc(N2CCOCC2)cnc1N1CCOCC1` [2-(2,4-bis(trifluoromethyl)phenyl)-N-(2,5-di-4-morpholinyl-3-pyridinyl)-5,7-difluoro-3-methyl-4-quinolinamine] came in with a Ki of 344 nM. This Ki is about 27-fold higher than that of the compound before. The value for `Cc1ccc(-c2nc3cc(F)cc(F)c3c(Nc3cc(N4CCOCC4)cnc3N3CCOCC3)c2C)c(C)c1` [2-(2,4-dimethylphenyl)-N-(2,5-di-4-morpholinyl-3-pyridinyl)-5,7-difluoro-3-methyl-4-quinolinamine] was 26.8 nM; that for `Cc1ccc(-c2nc3cc(F)cc(F)c3c(Nc3cc(N4CCOCC4)cnc3N3CCOCC3)c2C)cc1C` [2-(3,4-dimethylphenyl)-N-(2,5-di-4-morpholinyl-3-pyridinyl)-5,7-difluoro-3-methyl-4-quinolinamine] was 101 nM; that for `Cc1c(-c2cc(F)cc(F)c2)nc2ncccc2c1Nc1cc(N2CCOCC2)ccc1N1CCOCC1` [2-(3,5-difluorophenyl)-N-(2,5-di-4-morpholinylphenyl)-3-methyl-1,8-naphthyridin-4-amine] was 582 nM. On to `Cc1c(N2CCN(CC(C)(C)C)CC2)nc2cc(F)cc(F)c2c1Nc1cncc(N2CCOCC2)c1` [2-(4-(2,2-dimethylpropyl)-1-piperazinyl)-5,7-difluoro-3-methyl-N-(5-(4-morpholinyl)-3-pyridinyl)-4-quinolinamine], for which the Ki came to 98.8 nM. Turning to `Cc1c(N2CCN(C(=O)C3CCCC3)CC2)nc2cc(F)cc(F)c2c1Nc1cncc(N2CCOCC2)c1` [2-(4-(cyclopentylcarbonyl)-1-piperazinyl)-5,7-difluoro-3-methyl-N-(5-(4-morpholinyl)-3-pyridinyl)-4-quinolinamine], the Ki worked out at 42 nM. Consider `Cc1c(N2CCN(S(=O)(=O)C3CCCC3)CC2)nc2cc(F)cc(F)c2c1Nc1cncc(N2CCOCC2)c1` [2-(4-(cyclopentylsulfonyl)-1-piperazinyl)-5,7-difluoro-3-methyl-N-(5-(4-morpholinyl)-3-pyridinyl)-4-quinolinamine], for which the Ki came to 51 nM. This Ki and that of the compound before are within 1.5-fold of each other.

In the case of `CCS(=O)(=O)N1CCN(c2nc3cc(F)cc(F)c3c(Nc3cncc(N4CCOCC4)c3)c2C)CC1` [2-(4-(ethylsulfonyl)-1-piperazinyl)-5,7-difluoro-3-methyl-N-(5-(4-morpholinyl)-3-pyridinyl)-4-quinolinamine], affinity was put at a Ki of 88.4 nM. With `CC(=O)N1CCN(c2nc3cc(F)cc(F)c3c(Nc3cncc(N4CCOCC4)c3)c2C)CC1` [2-(4-acetyl-1-piperazinyl)-5,7-difluoro-3-methyl-N-(5-(4-morpholinyl)-3-pyridinyl)-4-quinolinamine], the Ki was 33.6 nM. Next, `Cc1c(-c2cc(Cl)ccn2)nc2cc(F)cc(F)c2c1Nc1cc(N2CCOCC2)cnc1N1CCOCC1` [2-(4-chloro-2-pyridinyl)-N-(2,5-di-4-morpholinyl-3-pyridinyl)-5,7-difluoro-3-methyl-4-quinolinamine]: 4.37 nM.

`Cc1c(N2CCN(C3CCCCC3)CC2)nc2cc(F)cc(F)c2c1Nc1cncc(N2CCOCC2)c1` [2-(4-cyclohexyl-1-piperazinyl)-5,7-difluoro-3-methyl-N-(5-(4-morpholinyl)-3-pyridinyl)-4-quinolinamine] returned a Ki of 28.4 nM. Next, `CCN1CCN(c2nc3cc(F)cc(F)c3c(Nc3cncc(N4CCOCC4)c3)c2C)CC1` [2-(4-ethyl-1-piperazinyl)-5,7-difluoro-3-methyl-N-(5-(4-morpholinyl)-3-pyridinyl)-4-quinolinamine]: 15.3 nM. Next, `Cc1c(-c2cncc(Cl)c2)nc2cc(F)cc(F)c2c1Nc1cc(N2CCOCC2)cnc1N1CCOCC1` [2-(5-chloro-3-pyridinyl)-N-(2,5-di-4-morpholinyl-3-pyridinyl)-5,7-difluoro-3-methyl-4-quinolinamine]: 11.2 nM; `Cc1c(-c2ccc(N3CCC(F)(F)CC3)nc2)nc2cc(F)cc(F)c2c1Nc1cc(N2CCOCC2)cnc1N1CCOCC1` [2-(6-(4,4-difluoro-1-piperidinyl)-3-pyridinyl)-N-(2,5-di-4-morpholinyl-3-pyridinyl)-5,7-difluoro-3-methyl-4-quinolinamine]: 43.5 nM. The value for `Cc1c(-c2ccc(N3CC[C@@H](N(C)C)C3)nc2)nc2cc(F)cc(F)c2c1Nc1cc(N2CCOCC2)cnc1N1CCOCC1` [2-(6-((3R)-3-(dimethylamino)-1-pyrrolidinyl)-3-pyridinyl)-N-(2,5-di-4-morpholinyl-3-pyridinyl)-5,7-difluoro-3-methyl-4-quinolinamine] was 28.4 nM; that for `Cc1c(-c2ccc(OCC3CC3)nc2)nc2cc(F)cc(F)c2c1Nc1cc(N2CCOCC2)cnc1N1CCOCC1` [2-(6-(cyclopropylmethoxy)-3-pyridinyl)-N-(2,5-di-4-morpholinyl-3-pyridinyl)-5,7-difluoro-3-methyl-4-quinolinamine] was 47.6 nM; that for `Cc1c(-c2ccc(N(C)C)nc2)nc2cc(F)cc(F)c2c1Nc1cncc(N2CCOCC2)c1` [2-(6-(dimethylamino)-3-pyridinyl)-5,7-difluoro-3-methyl-N-(5-(4-morpholinyl)-3-pyridinyl)-4-quinolinamine] was 180 nM. `Cc1c(-c2ccc(N(C)C)nc2)nc2cc(F)cc(F)c2c1Nc1cc(N2CCOCC2)cnc1N1CCOCC1` [2-(6-(dimethylamino)-3-pyridinyl)-N-(2,5-di-4-morpholinyl-3-pyridinyl)-5,7-difluoro-3-methyl-4-quinolinamine] had a Ki of 24.4 nM. Turning to `CCOc1ccc(-c2nc3cc(F)cc(F)c3c(Nc3cncc(N4CCOCC4)c3)c2C)cn1` [2-(6-ethoxy-3-pyridinyl)-5,7-difluoro-3-methyl-N-(5-(4-morpholinyl)-3-pyridinyl)-4-quinolinamine], affinity was put at a Ki of 291 nM.

`Cc1c(N2CCN(C(=O)OCC(C)C)CC2)nc2cc(F)cc(F)c2c1Nc1cncc(N2CCOCC2)c1` [2-methylpropyl 4-(5,7-difluoro-3-methyl-4-((5-(4-morpholinyl)-3-pyridinyl)amino)-2-quinolinyl)-1-piperazinecarboxylate] yielded a Ki of 108 nM. Next, `Cc1c(-c2cc(O)ccc2S(C)(=O)=O)nc2cc(F)ccc2c1Nc1cc(N2CCOCC2)cnc1N1CCOCC1` [3-(4-((2,5-di-4-morpholinyl-3-pyridinyl)amino)-7-fluoro-3-methyl-2-quinolinyl)-4-(methylsulfonyl)phenol]: 17.5 nM.

The record behind these values is US8940724B2, “Quinoline derivitives and their uses” (Amgen Inc., priority 2009, dated 2015).
